Experimental data reported in US20240217968A1, “PHARMACEUTICAL COMPOUND” (DUKE STREET BIO LIMITED, priority 2021, published 2024).
pIC50: −log10 of the molar value.

target: T1, recombinant human Flag-tagged PARP7 (amino acids 456-657) (Homo sapiens, UniProt Q7Z3E1); test: PARP7 biochemical DELFIA assay (auto-MARylation); conditions: DELFIA readout, IC50 class
T1 construct: recombinant human Flag-tagged PARP7 (amino acids 456-657)
T1 sequence (Q7Z3E1 456-657): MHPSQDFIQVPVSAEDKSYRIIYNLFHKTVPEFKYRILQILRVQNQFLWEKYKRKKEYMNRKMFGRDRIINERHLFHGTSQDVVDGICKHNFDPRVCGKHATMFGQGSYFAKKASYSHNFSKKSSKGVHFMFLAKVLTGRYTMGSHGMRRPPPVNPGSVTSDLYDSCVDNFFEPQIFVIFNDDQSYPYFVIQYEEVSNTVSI
In short: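 Readout is DELFIA time-resolved Eu fluorescence (Ex337 nm, Em620 nm) of biotin-ADP-ribose on immobilised Flag-tagged PARP7 456-657. Enzyme (12.5-37.5 nM as added) sat 30 min with compound before biotin-NAD+ (15 μM solution, pH 7.5 HEPES buffer) started 2-3 h room-temperature self-modification, stopped with excess NAD+.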

Row | pIC50 | Structure (SMILES)
1 | ≥ 7.00 | CC(COCCC(=O)N1CCN(c2cnc(C(F)F)cn2)CC1)n1nc(C(F)(F)F)c2c(=O)[nH]ncc21 (single isomer, unassigned) [Compound 323]
2 | ≥ 7.00 | CC(COCCC(=O)N1CCN(c2ncc(C(F)F)cn2)CC1)n1nc(C(F)(F)F)c2c(=O)[nH]ncc21 (centres unmarked) [Compound 265]
3 | 6.00 to 7.00 | N#Cc1ccc(N2CCN(C(=O)CCOCCn3c(C(F)(F)F)cc4c(=O)[nH]ncc43)CC2)nc1 [Compound 78]
4 | ≥ 7.00 | O=C(CCOCCn1ncc2c(=O)[nH]ncc21)N1CCN(c2ncc(C(F)(F)F)cn2)CC1 [Compound 50, 1-(2-(3-oxo-3-(4-(5-(trifluoromethyl)pyrimidin-2-yl)piperazin-1-yl)propoxy)ethyl)-1,5-dihydro-4H-pyrazolo[3,4-d]pyridazin-4-one]
5 | 6.00 to 7.00 | N#Cc1cc(CCOCCC(=O)N2CCN(c3ncc(C(F)(F)F)cn3)CC2)c2cn[nH]c(=O)c2c1 [Compound 112]
6 | ≥ 7.00 | O=C(CCOCCn1nc(C(F)(F)F)c2c(=O)[nH]ncc21)N1CCN(c2ncc(C(F)(F)F)cn2)CC1 [Compound 153, 1-(2-(3-oxo-3-(4-(5-(trifluoromethyl)pyrimidin-2-yl)piperazin-1-yl)propoxy)ethyl)-3-(trifluoromethyl)-1,5-dihydro-4H-pyrazolo[3,4-d]pyridazin-4-one]
7 | ≥ 7.00 | CC(COCCC(=O)N1CCN(c2ncccc2F)CC1)n1nc(C(F)(F)F)c2c(=O)[nH]ncc21 (centres unmarked) [Compound 369]
8 | ≥ 7.00 | CC(COCCC(=O)N1CCN(c2ncc(C(C)(F)F)cn2)CC1)n1cc(C(F)(F)F)c2c(=O)[nH]ncc21 (centres unmarked) [Compound 481]
9 | ≥ 7.00 | O=C(CCOCCc1cccc2c(=O)[nH]ncc12)N1CCN(c2ncc(F)cn2)CC1 [Compound 99]
10 | 6.00 to 7.00 | O=C(CCOCCc1cccc2c(=O)[nH]ncc12)N1CCN(c2ccc(C(F)(F)F)cc2)C(=O)C1 [Compound 207]
11 | ≥ 7.00 | CC(COCCC(=O)N1CCN(c2ccc(Cl)cn2)CC1)n1cc(C(F)(F)F)c2c(=O)[nH]ncc21 (centres unmarked) [Compound 374]
12 | ≥ 7.00 | O=C(OCCCCn1nc(C(F)(F)F)c2c(=O)[nH]ncc21)N1CCN(c2ncc(C(F)(F)F)cn2)CC1 [Compound 441]
13 | 6.00 to 7.00 | CC(COCCC(=O)N1CCN(c2ncccc2Cl)CC1)n1nc(C(F)(F)F)c2c(=O)[nH]ncc21 (single isomer, unassigned) [Compound 356]
14 | ≥ 7.00 | N#Cc1ccc2oc(N3CCN(C(=O)CCOCCn4nc(C(F)(F)F)c5c(=O)[nH]ncc54)CC3)nc2c1 [Compound 196]
15 | 6.00 to 7.00 | CC(COCCC(=O)N1CCN(c2ncccc2C(F)(F)F)CC1)n1nc(C(F)(F)F)c2c(=O)[nH]ncc21 (centres unmarked) [Compound 354]
16 | ≥ 7.00 | CC(CCOCC(=O)N1CCN(c2ncc(Cl)cn2)CC1)n1cc(C(F)(F)F)c2c(=O)[nH]ncc21 (single isomer, unassigned) [Compound 456]
17 | ≥ 7.00 | CNC(=O)c1cnc(N2CCN(C(=O)CCOCC(C)n3nc(C(F)(F)F)c4c(=O)[nH]ncc43)CC2)nc1 (centres unmarked) [Compound 325]
18 | 6.00 to 7.00 | COCc1cc2c(=O)[nH]ncc2n1CCOCCC(=O)N1CCN(c2ncc(C(F)(F)F)cn2)CC1 [Compound 135]
19 | ≥ 7.00 | Cc1nn(C(C)COCCC(=O)N2CCN(c3ccc(C#N)cn3)CC2)c2cn[nH]c(=O)c12 (centres unmarked) [Compound 244]
20 | ≥ 7.00 | O=C(CCOCC(F)(F)c1cccc2c(=O)[nH]ncc12)N1CCN(c2ncc(C(F)(F)F)cn2)CC1 [Compound 424]

Row | pIC50 | Structure (SMILES)
21 | ≥ 7.00 | CCC(COCCC(=O)N1CCN(c2ncc(C(F)(F)F)cn2)CC1)n1cc(C(F)(F)F)c2c(=O)[nH]ncc21 (single isomer, unassigned) [Compound 339]
22 | ≥ 7.00 | CC(COCCC(=O)N1CCN(c2ncccc2C(F)(F)F)CC1)n1nc(C(F)(F)F)c2c(=O)[nH]ncc21 (centres unmarked) [Compound 353]
23 | ≥ 7.00 | CC(COCCC(=O)N1CCN(c2ncc(C#N)cn2)CC1)n1cc(C(F)(F)F)c2c(=O)[nH]ncc21 (centres unmarked) [Compound 465]
24 | 5.00 to 6.00 | O=C(CCOCC(c1cccc2c(=O)[nH]ncc12)C(F)(F)F)N1CCN(c2ncc(C(F)(F)F)cn2)CC1 (centres unmarked) [Compound 426]
25 | ≥ 7.00 | O=C(CCOCCc1cccc2c(=O)[nH]ncc12)N1CCN(c2ncc(C(F)F)cn2)CC1 [Compound 101]
26 | ≥ 7.00 | Cc1cc2c(=O)[nH]ncc2n1CCOCCC(=O)N1CCN(c2ncc(C(F)(F)F)cn2)CC1 [Compound 77]
27 | ≥ 7.00 | N#Cc1ccc(N2CCN(C(=O)CCOCCc3cccc4c(=O)[nH]ncc34)CC2)nc1 [Compound 67]
28 | ≥ 7.00 | CC(COCCC(=O)N1CCN(c2ncc(C(F)(F)F)s2)CC1)n1nc(C(F)(F)F)c2c(=O)[nH]ncc21 (single isomer, unassigned) [Compound 258]
29 | 5.00 to 6.00 | O=C1NCNc2c(OCCOCC(=O)N3CCN(c4ncc(C(F)(F)F)cn4)CC3)cccc21 [Compound 47]
30 | ≥ 7.00 | O=C(CCOCCn1nc(C(F)(F)F)c2c(=O)[nH]c(=O)[nH]c21)N1CCN(c2ncc(C(F)(F)F)cn2)CC1 [Compound 401]
31 | ≥ 7.00 | CC1(C)CN(C(=O)CCOCCn2nc(C(F)(F)F)c3c(=O)[nH]ncc32)CCN1c1ncc(C(F)(F)F)cn1 [Compound 182]
32 | ≥ 7.00 | CC(COCCC(=O)N1CCN(c2ccc(C#N)cn2)CC1)n1ncc2c(=O)[nH]ncc21 (single isomer, unassigned) [Compound 189]
33 | ≥ 7.00 | O=C(CCOCCn1nc(C(F)(F)F)c2c(=O)[nH]ncc21)N1CCN(c2ncc3c(n2)NCCC3)CC1 [Compound 394]
34 | ≥ 7.00 | O=C(c1cccc(Cn2cc(C(F)(F)F)c3c(=O)[nH]ncc32)c1)N1CCN(c2ncc(C(F)(F)F)cn2)CC1 [Compound 478]
35 | ≥ 7.00 | Cc1cn(CCOCCC(=O)N2CCN(c3ncc(C(F)(F)F)cn3)CC2)c2[nH]c(=O)[nH]c(=O)c12 [Compound 404]
36 | ≥ 7.00 | N#Cc1ccc(N2CCN(C(=O)CCOCC(F)(F)c3cccc4c(=O)[nH]ncc34)CC2)nc1 [Compound 446]
37 | ≥ 7.00 | CC(COCCC(=O)N1CCN(c2ncc(C(C)(F)F)cn2)CC1)n1cc(C(F)(F)F)c2c(=O)[nH]ncc21 (single isomer, unassigned) [Compound 482]
38 | ≥ 7.00 | CC(COCCC(=O)N1CCN(c2cnc(C#N)cn2)CC1)n1nc(C(F)(F)F)c2c(=O)[nH]ncc21 (centres unmarked) [Compound 313]
39 | ≥ 7.00 | O=C1CCc2cnc(N3CCN(C(=O)CCOCCn4nc(C(F)(F)F)c5c(=O)[nH]ncc54)CC3)nc2N1 [Compound 303]
40 | ≥ 7.00 | O=C(CCOCCc1cccc2c(=O)[nH]ncc12)N1CCN(c2nc3cc(F)ccc3o2)CC1 [Compound 199]

Row | pIC50 | Structure (SMILES)
41 | ≥ 7.00 | CNC(=O)c1ccc(N2CCN(C(=O)CCOCC(C)n3nc(C(F)(F)F)c4c(=O)[nH]ncc43)CC2)nc1 (single isomer, unassigned) [Compound 305]
42 | ≥ 7.00 | CC(COCCC(=O)N1CCN(c2ccc(C3CC3)cn2)CC1)n1nc(C(F)(F)F)c2c(=O)[nH]ncc21 (centres unmarked) [Compound 278]
43 | ≥ 7.00 | CC1CN(c2ccc(C#N)cn2)CCN1C(=O)CCOCCc1cccc2c(=O)[nH]ncc12 (centres unmarked) [Compound 85]
44 | 5.00 to 6.00 | O=C(Cn1nc(C(F)(F)F)c2c(=O)[nH]ncc21)N1CCC(C(=O)N2CCN(c3ncc(C(F)(F)F)cn3)CC2)C1 (centres unmarked) [Compound 443]
45 | 6.00 to 7.00 | CN(CCOCC(=O)N1CCN(c2ncc(C(F)(F)F)cn2)CC1)c1cccc2c(=O)[nH]ncc12 [Compound 43]
46 | ≥ 7.00 | CC(COCCC(=O)N1CCN(c2ncc(Cl)cn2)CC1)n1cc(C(F)(F)F)c2c(=O)[nH]ncc21 (centres unmarked) [Compound 273]
47 | ≥ 7.00 | O=C(CCCOCc1cccc2c(=O)[nH]ncc12)N1CCN(c2ncc(C(F)(F)F)cn2)CC1 [Compound 124]
48 | ≥ 7.00 | Cc1nn(C(C)COCCC(=O)N2CCN(c3ccc(C#N)cn3)CC2)c2cn[nH]c(=O)c12 (centres unmarked) [Compound 243]
49 | ≥ 7.00 | CC(C)(C)c1cnc(N2CCN(C(=O)CCOCCc3cccc4c(=O)[nH]ncc34)CC2)nc1 [Compound 252]
50 | ≥ 7.00 | CC(COCCC(=O)N1CCN(c2ccc(C#N)cn2)CC1)n1nc(C(F)(F)F)c2c(=O)[nH]ncc21 (centres unmarked) [Compound 269]
51 | 6.00 to 7.00 | O=C(CCOCCc1cccc2c(=O)[nH]ncc12)N1CCC(Oc2ccccc2)CC1 [Compound 197]
52 | 6.00 to 7.00 | O=C(CCOCCc1cccc2c(=O)[nH]ncc12)N1CCN(c2ncccn2)CC1 [Compound 104]
53 | 6.00 to 7.00 | N#Cc1ccc(N2CCN(C(=O)c3cccc(Oc4cccc5c(=O)[nH]ncc45)c3)CC2)nc1 [Compound 29]
54 | ≥ 7.00 | N#Cc1ccc2nc(N3CCN(C(=O)CCOCCn4nc(C(F)(F)F)c5c(=O)[nH]ncc54)CC3)oc2c1 [Compound 218]
55 | ≥ 7.00 | O=C(CCOCCc1cncc2c(=O)[nH]ncc12)N1CCN(c2ncc(C(F)(F)F)cn2)CC1 [Compound 231]
56 | 6.00 to 7.00 | O=C(NCCOc1cccc2c(=O)[nH]ncc12)N1CCN(c2ncc(C(F)(F)F)cn2)CC1 [Compound 58]
57 | 6.00 to 7.00 | CC(COCCC(=O)N1CCN(c2cc(C(F)(F)F)on2)CC1)n1nc(C(F)(F)F)c2c(=O)[nH]ncc21 (single isomer, unassigned) [Compound 430]
58 | 6.00 to 7.00 | CC(COCCC(=O)N1CCN(c2ncc(C#N)cn2)CC1)c1ccc(Cl)c2c(=O)[nH]ncc12 (single isomer, unassigned) [Compound 414]

Row | Structure (SMILES) | pIC50
59 | CC(OCCCC(=O)N1CCN(c2ncc(C(F)(F)F)cn2)CC1)c1cc(Cl)cc2c(=O)[nH]ncc12 (single isomer, unassigned) [Compound 174, 7-chloro-5-(1-(4-oxo-4-(4-(5-(trifluoromethyl)pyrimidin-2-yl)piperazin-1-yl)butoxy)ethyl)phthalazin-1(2H)-one] | ≥ 7.00
